Test results as given in ChEMBL document CHEMBL1147787, “Synthesis and preliminary antitumor activity evaluation of a DHA and doxorubicin conjugate” (Bioorg Med Chem Lett, 2006).
Active and inactive are the calls of the source. No cut-off for these calls is given here.

Key:
Mus musculus [1] = test: Antitumor activity in BDF1 mouse bearing L1210 leukemia assessed as loss of body weight at 5 ug/kg, ip; assay type: functional
L1210 = test: Antitumor activity against mouse L1210 cell line assessed as inhibition of [3H]thymidine incorporation; assay type: functional, cell-based
Mus musculus [2] = test: Antitumor activity in BDF1 mouse bearing B16 melanoma assessed as inhibition of tumor growth at 5 mg/kg, ip relative to control; assay type: functional; conditions: route intraperitoneal
Mus musculus [3] = test: Antitumor activity in BDF1 mouse bearing L1210 leukemia assessed as survival for 30 days at 8 ug/kg, ip; assay type: functional, organism-based
Mus musculus [4] = test: Antitumor activity in BDF1 mouse bearing L1210 leukemia assessed as loss of body weight at 8 ug/kg, ip; assay type: functional
Mus musculus [5] = test: Antitumor activity in BDF1 mouse bearing L1210 leukemia assessed as increase in life span at 5 ug/kg, ip relative to control; assay type: functional
Mus musculus [6] = test: Antitumor activity in BDF1 mouse bearing L1210 leukemia assessed as survival for 30 days at 5 ug/kg, ip; assay type: functional, organism-based
Mus musculus [7] = test: Antitumor activity in BDF1 mouse bearing B16 melanoma assessed as loss of body weight at 5 mg/kg, ip; assay type: functional; conditions: route intraperitoneal
Mus musculus [8] = test: Antitumor activity in BDF1 mouse bearing L1210 leukemia assessed as loss of body weight at 16 ug/kg, ip; assay type: functional
Mus musculus [9] = test: Antitumor activity in BDF1 mouse bearing L1210 leukemia assessed as loss of body weight at 32 ug/kg, ip; assay type: functional
Mus musculus [10] = test: Antitumor activity in BDF1 mouse bearing B16 melanoma assessed as loss of body weight at 30 mg/kg, ip; assay type: functional; conditions: route intraperitoneal
Mus musculus [11] = test: Antitumor activity in BDF1 mouse bearing L1210 leukemia assessed as survival for 30 days at 32 ug/kg, ip; assay type: functional, organism-based
Mus musculus [12] = test: Antitumor activity in BDF1 mouse bearing L1210 leukemia assessed as increase in life span at 32 ug/kg, ip relative to control; assay type: functional
Mus musculus [13] = test: Antitumor activity in BDF1 mouse bearing B16 melanoma assessed as inhibition of tumor growth at 30 mg/kg, ip relative to control; assay type: functional; conditions: route intraperitoneal
Mus musculus [14] = test: Antitumor activity in BDF1 mouse bearing B16 melanoma assessed as inhibition of tumor growth at 20 mg/kg, ip relative to control; assay type: functional; conditions: route intraperitoneal
Mus musculus [15] = test: Antitumor activity in BDF1 mouse bearing L1210 leukemia assessed as increase in life span at 8 ug/kg, ip relative to control; assay type: functional
Mus musculus [16] = test: Antitumor activity in BDF1 mouse bearing L1210 leukemia assessed as increase in life span at 16 ug/kg, ip relative to control; assay type: functional
Mus musculus [17] = test: Antitumor activity in BDF1 mouse bearing B16 melanoma assessed as loss of body weight at 20 mg/kg, ip; assay type: functional; conditions: route intraperitoneal

COc1cccc2c1C(=O)c1c(O)c3c(c(O)c1C2=O)C[C@@](O)(C(=O)CO)C[C@@H]3O[C@H]1C[C@H](N)[C@H](O)[C@H](C)O1 [DOXORUBICIN]
Activity (Mus musculus [1]): -7% | IC50 (L1210): 150 nM | inhibition in vivo at 5 mg/kg (Mus musculus [2]): 35% | Activity (Mus musculus [3]): inactive | Activity (Mus musculus [4]): -19% | Activity (Mus musculus [5]): 53% | Activity (Mus musculus [6]): inactive | Activity (Mus musculus [7]): -10%

CC/C=C/C/C=C/C/C=C/C/C=C/C/C=C/C/C=C/CCC(=O)N/N=C(\CO)[C@]1(O)Cc2c(O)c3c(c(O)c2[C@@H](OC2C[C@H](N)[C@H](O)[C@H](C)O2)C1)C(=O)c1c(OC)cccc1C3=O.Cl (stereo partly specified)
Activity (Mus musculus [8]): -4% | Activity (Mus musculus [9]): -11% | IC50 (L1210): 1400 nM | Activity (Mus musculus [3]): inactive | Activity (Mus musculus [4]): -2% | Activity (Mus musculus [10]): -6% | Activity (Mus musculus [11]): inactive | Activity (Mus musculus [12]): 80% | inhibition in vivo at 30 mg/kg (Mus musculus [13]): 70% | inhibition in vivo at 20 mg/kg (Mus musculus [14]): 53% | Activity (Mus musculus [15]): 53% | Activity (Mus musculus [16]): 107% | Activity (Mus musculus [17]): -6%
